Measured values taken from patent US10800741B2 (ANCUREALL PHARMACEUTICAL (SHANGHAI) CO., LTD., priority 2017, dated 2020).
Where two headings read alike, the source gives them in different places.

Tests used:
Assay in all cases: KINOMEscan in vitro binding to 468 labeled protein kinases
protein kinases [1] = molecular target: T1, protein kinases (Homo sapiens, UniProt P00533, DEL746-750); conditions: EGFR(E746-A750de1)
T1 construct: purchased Discovery X company (USA), KINOMEscan screening platform
T1 sequence (P00533 with tags, fused parts or gaps DEL746-750): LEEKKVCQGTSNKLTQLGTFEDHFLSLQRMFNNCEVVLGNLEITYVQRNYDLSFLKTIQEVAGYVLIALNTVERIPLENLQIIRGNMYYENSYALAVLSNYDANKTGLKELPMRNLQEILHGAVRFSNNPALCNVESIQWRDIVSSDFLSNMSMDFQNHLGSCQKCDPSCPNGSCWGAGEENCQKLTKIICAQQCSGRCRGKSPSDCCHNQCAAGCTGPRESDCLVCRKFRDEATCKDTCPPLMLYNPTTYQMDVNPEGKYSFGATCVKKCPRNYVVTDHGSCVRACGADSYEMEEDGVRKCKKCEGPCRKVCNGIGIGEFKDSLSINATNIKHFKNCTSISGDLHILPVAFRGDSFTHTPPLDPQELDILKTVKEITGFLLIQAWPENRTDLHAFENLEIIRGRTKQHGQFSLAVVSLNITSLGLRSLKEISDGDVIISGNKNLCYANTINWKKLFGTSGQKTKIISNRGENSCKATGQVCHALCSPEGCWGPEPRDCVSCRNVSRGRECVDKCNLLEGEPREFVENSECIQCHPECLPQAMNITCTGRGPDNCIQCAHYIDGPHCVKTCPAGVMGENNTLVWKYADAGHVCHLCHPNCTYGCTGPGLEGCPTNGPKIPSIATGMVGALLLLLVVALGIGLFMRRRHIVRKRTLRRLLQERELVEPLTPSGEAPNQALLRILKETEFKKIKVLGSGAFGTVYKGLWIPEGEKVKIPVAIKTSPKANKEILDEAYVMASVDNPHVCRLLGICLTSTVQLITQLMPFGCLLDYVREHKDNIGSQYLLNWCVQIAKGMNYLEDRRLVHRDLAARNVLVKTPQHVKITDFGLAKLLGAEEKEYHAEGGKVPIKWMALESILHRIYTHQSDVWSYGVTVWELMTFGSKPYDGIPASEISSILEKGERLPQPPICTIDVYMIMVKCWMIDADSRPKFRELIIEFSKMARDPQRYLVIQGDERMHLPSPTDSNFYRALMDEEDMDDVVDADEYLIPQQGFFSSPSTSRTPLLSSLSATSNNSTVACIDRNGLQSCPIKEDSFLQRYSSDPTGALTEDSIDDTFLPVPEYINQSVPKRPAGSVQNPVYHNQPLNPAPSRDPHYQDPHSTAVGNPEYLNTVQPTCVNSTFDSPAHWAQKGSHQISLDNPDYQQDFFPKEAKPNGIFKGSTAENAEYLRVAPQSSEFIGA
Procedure: (§1) Test Example 6 Determination of Binding Affinity of the Present Compounds on Protein Kinases In Vitro
(§2) KINOMEscan screening platform of Discovery X company (USA) was used to identify the binding targets of the present compounds to protein kinases. Compound 66 of the present invention was dissolved in DMSO (Sigma Aldrich) at concentrations of 1000 nM, 10 nM and 1 nM, and then was subjected to in vitro binding reaction with 468 labeled protein kinases. Two samples were taken in parallel for each assay sample.
(§3) The lower the percentage of the test compound to the solvent control, the stronger the binding affinity of the test compound to the protein kinase in vitro.

protein kinases [2] = molecular target: T2, protein kinases (Homo sapiens, UniProt P06239); conditions: LCK, read-out: Test compound/solvent control (%)
T2 construct: purchased Discovery X company (USA), KINOMEscan screening platform
T2 sequence (P06239 whole entry): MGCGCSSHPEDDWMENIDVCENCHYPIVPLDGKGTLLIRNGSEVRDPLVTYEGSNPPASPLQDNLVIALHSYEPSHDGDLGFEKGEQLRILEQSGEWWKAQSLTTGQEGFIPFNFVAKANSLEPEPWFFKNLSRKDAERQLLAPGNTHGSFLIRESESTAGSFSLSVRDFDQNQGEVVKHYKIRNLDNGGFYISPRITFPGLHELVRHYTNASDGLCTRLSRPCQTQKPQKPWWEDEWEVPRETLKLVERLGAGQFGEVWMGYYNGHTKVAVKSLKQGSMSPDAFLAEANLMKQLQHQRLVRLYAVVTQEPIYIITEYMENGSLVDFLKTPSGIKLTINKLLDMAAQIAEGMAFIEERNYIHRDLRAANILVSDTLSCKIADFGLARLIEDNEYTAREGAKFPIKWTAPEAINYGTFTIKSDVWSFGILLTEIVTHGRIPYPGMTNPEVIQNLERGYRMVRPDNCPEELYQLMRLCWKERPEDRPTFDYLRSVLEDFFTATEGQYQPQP
Procedure: as §1, §2, §3

protein kinases [3] = molecular target: T3, protein kinases (Homo sapiens, UniProt P11362); conditions: FGFR1, read-out: Test compound/solvent control (%)
T3 construct: purchased Discovery X company (USA), KINOMEscan screening platform
T3 sequence (P11362 22-822): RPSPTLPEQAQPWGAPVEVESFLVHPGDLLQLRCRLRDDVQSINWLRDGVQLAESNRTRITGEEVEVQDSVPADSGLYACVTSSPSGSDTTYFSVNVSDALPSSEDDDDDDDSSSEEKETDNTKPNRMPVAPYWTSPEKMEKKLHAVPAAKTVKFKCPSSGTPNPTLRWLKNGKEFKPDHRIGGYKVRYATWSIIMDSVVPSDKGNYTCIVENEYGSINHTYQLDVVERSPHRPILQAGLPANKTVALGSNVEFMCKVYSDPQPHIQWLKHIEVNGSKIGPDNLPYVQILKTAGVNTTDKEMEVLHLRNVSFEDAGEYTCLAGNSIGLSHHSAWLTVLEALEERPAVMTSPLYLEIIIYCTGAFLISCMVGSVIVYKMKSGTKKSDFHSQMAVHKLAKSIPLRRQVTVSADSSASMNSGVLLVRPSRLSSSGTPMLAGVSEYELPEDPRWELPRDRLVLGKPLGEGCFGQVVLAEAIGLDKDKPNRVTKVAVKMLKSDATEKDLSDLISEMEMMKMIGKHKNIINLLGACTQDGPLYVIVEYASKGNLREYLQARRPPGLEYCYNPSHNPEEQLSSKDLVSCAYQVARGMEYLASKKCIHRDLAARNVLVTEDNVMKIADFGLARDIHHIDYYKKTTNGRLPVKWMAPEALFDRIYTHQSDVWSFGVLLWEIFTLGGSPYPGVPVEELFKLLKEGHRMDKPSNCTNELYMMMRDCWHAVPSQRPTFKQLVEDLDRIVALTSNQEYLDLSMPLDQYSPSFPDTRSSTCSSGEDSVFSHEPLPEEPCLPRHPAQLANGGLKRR
Procedure: as §1, §2, §3

protein kinases [4] = molecular target: T4, protein kinases (Homo sapiens, UniProt O94804); conditions: LOK
T4 construct: purchased Discovery X company (USA), KINOMEscan screening platform
Procedure: as §1, §2, §3

protein kinases [5] = molecular target: T5, protein kinases (Homo sapiens, UniProt P00533, DEL752-759); conditions: EGFR(S752-1759del)
T5 construct: purchased Discovery X company (USA), KINOMEscan screening platform
T5 sequence (P00533 with tags, fused parts or gaps DEL752-759): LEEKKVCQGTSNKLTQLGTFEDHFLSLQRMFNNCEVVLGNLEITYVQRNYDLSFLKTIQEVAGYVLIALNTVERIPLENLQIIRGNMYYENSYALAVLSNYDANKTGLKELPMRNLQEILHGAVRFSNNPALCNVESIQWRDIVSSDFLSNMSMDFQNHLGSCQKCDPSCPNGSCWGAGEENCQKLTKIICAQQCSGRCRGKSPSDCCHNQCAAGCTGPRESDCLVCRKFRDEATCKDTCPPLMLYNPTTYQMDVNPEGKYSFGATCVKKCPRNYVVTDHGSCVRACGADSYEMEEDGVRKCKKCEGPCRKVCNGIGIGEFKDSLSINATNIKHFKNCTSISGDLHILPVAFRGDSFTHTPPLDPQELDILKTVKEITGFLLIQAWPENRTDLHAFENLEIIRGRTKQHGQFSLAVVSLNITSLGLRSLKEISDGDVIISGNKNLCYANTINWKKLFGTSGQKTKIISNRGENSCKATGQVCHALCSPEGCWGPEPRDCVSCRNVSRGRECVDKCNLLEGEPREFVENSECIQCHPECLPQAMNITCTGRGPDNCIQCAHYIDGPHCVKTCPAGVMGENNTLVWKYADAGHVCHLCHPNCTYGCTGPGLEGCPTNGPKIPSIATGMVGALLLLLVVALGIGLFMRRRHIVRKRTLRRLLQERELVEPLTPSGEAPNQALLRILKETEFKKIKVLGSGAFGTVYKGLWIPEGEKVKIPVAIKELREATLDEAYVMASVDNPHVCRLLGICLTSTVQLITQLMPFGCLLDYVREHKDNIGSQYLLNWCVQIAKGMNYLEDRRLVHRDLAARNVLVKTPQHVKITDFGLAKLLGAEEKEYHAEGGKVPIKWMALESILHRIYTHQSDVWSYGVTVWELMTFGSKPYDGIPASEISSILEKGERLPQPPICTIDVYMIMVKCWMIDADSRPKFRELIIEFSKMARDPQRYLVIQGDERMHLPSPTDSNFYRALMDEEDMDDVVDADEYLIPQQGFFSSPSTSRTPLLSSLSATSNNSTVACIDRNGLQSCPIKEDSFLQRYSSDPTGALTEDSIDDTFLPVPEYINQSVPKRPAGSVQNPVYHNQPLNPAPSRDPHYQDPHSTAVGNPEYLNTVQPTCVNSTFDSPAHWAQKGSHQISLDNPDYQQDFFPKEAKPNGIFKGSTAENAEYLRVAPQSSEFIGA
Procedure: as §1, §2, §3

protein kinases [6] = molecular target: T6, protein kinases (Homo sapiens, UniProt P16234); conditions: PDGFRA, read-out: Test compound/solvent control (%)
T6 construct: purchased Discovery X company (USA), KINOMEscan screening platform
T6 sequence (P16234 24-1089): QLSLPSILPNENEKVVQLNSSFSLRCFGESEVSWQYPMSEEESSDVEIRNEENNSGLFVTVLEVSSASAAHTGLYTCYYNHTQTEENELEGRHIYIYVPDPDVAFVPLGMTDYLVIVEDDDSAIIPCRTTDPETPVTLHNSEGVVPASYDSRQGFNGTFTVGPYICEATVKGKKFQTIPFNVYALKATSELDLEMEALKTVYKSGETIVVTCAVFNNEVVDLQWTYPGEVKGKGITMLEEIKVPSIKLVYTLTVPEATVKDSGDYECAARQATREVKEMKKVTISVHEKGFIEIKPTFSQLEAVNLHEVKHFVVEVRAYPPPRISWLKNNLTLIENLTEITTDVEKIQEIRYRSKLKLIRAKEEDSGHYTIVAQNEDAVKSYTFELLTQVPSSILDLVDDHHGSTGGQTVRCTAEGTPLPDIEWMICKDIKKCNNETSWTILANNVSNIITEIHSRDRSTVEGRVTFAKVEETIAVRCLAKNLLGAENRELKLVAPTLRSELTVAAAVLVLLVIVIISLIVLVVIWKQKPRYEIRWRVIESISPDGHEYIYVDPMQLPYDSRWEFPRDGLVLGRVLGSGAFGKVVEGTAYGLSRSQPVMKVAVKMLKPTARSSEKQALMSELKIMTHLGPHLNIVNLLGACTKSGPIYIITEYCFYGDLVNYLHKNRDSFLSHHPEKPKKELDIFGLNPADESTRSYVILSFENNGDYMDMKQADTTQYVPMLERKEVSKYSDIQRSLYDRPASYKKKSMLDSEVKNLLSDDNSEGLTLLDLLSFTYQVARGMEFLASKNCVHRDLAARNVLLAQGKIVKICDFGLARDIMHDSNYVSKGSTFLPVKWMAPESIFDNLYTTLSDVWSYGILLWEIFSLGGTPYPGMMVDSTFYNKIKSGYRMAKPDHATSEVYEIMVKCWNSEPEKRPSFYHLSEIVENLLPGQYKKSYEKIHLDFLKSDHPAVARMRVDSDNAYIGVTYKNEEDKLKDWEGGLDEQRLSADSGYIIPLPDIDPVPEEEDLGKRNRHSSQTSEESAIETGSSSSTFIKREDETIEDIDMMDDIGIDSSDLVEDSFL
Procedure: as §1, §2, §3

protein kinases [7] = molecular target: T7, protein kinases (Homo sapiens, UniProt P30530); conditions: AXL, read-out: Test compound/solvent control (%)
T7 construct: purchased Discovery X company (USA), KINOMEscan screening platform
T7 sequence (P30530 26-894): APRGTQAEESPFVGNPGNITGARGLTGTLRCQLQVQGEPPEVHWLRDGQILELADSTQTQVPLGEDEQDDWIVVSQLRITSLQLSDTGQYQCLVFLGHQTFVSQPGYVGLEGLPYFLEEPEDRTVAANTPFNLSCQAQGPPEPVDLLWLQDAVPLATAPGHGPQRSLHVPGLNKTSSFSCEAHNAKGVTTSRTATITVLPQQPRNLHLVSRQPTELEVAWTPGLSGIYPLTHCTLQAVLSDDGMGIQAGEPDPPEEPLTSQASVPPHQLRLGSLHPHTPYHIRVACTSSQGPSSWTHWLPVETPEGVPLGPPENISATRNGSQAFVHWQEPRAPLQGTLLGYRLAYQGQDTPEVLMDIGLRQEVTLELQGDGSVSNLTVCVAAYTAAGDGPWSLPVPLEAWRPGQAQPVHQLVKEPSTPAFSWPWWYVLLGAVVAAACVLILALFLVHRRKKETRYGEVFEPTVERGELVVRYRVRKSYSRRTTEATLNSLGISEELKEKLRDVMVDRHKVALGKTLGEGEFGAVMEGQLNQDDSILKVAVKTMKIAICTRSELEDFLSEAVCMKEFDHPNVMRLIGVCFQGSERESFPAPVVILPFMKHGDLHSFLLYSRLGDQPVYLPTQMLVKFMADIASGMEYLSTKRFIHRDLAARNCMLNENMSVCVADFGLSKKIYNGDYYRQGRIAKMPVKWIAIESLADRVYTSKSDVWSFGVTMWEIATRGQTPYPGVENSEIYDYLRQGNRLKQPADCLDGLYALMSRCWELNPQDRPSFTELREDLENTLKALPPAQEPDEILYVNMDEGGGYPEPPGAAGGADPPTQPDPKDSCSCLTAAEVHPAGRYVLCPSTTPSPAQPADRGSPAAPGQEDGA
Procedure: as §1, §2, §3

protein kinases [8] = molecular target: T8, protein kinases (Homo sapiens, UniProt P00519, F317I); conditions: read-out: Test compound/solvent control (%); for remaining binding at 0.001 µM: 1 nM; for remaining binding at 0.01 µM: 10 nM; for remaining binding at 1 µM: 1000 nM
T8 construct: purchased Discovery X company (USA), KINOMEscan screening platform
Procedure: as §1, §2, §3

Test compound/solvent control (%) (protein kinases [1]; 1 nM): 60%
Test compound/solvent control (%) (protein kinases [1]; 10 nM): 18%
Test compound/solvent control (%) (protein kinases [1]; 1000 nM): 2.8%
remaining binding at 0.001 µM (protein kinases [2]; 1 nM): 33%
remaining binding at 0.01 µM (protein kinases [2]; 10 nM): 0.65%
remaining binding at 1 µM (protein kinases [2]; 1000 nM): 0.2%
remaining binding at 0.001 µM (protein kinases [3]; 1 nM): 56%
remaining binding at 0.01 µM (protein kinases [3]; 10 nM): 4.5%
remaining binding at 1 µM (protein kinases [3]; 1000 nM): 0.3%
Test compound/solvent control (%) (protein kinases [4]; 1 nM): 57%
Test compound/solvent control (%) (protein kinases [4]; 10 nM): 1.3%
Test compound/solvent control (%) (protein kinases [4]; 1000 nM): 0%
Test compound/solvent control (%) (protein kinases [5]; 1 nM): 90%
Test compound/solvent control (%) (protein kinases [5]; 10 nM): 29%
Test compound/solvent control (%) (protein kinases [5]; 1000 nM): 0%
remaining binding at 0.001 µM (protein kinases [6]; 1 nM): 88%
remaining binding at 0.01 µM (protein kinases [6]; 10 nM): 34%
remaining binding at 1 µM (protein kinases [6]; 1000 nM): 0.15%
remaining binding at 0.001 µM (protein kinases [7]; 1 nM): 53%
remaining binding at 0.01 µM (protein kinases [7]; 10 nM): 7.2%
remaining binding at 1 µM (protein kinases [7]; 1000 nM): 4.1%
remaining binding at 0.001 µM (protein kinases [8]; ABL1(F317I)-phosphorylated): 100%
remaining binding at 0.01 µM (protein kinases [8]; ABL1(F317I)-phosphorylated): 31%
remaining binding at 1 µM (protein kinases [8]; ABL1(F317I)-phosphorylated): 15%
remaining binding at 0.001 µM (protein kinases [8]; ABL1(F317I)-unphosphorylated): 83%
remaining binding at 0.01 µM (protein kinases [8]; ABL1(F317I)-unphosphorylated): 17%
remaining binding at 1 µM (protein kinases [8]; ABL1(F317I)-unphosphorylated): 0.25%
SMILES: COCCOc1cc2nccc(Oc3ccc(NC(=O)Nc4cc(C(C)(C)C)n[nH]4)c(Cl)c3)c2cc1NC(C)=O [Compound 66, N-[4-{4-[3-(5-tert-butyl-2H-pyrazol-3-yl)-ureido]-3-chloro-phenoxy}-7-(2-methoxy-ethoxy)-quinolin-6-yl]-acetamide]
